Data taken from PubChem BioAssay (NCI).
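Grown in 96-well plates, cells were treated for 48 hours with each compound at five concentrations. Insufficient inhibition: endpoint recorded as highest concentration tested. At the TGI there is no net growth.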

Tests used:
Test in all cases: inhibition of tumour cell growth, NCI panel, 48 h
[1] = test system: MDA-MB-231 breast
[2] = test system: MDA-N
[3] = test system: MCF7 breast
[4] = test system: T-47D breast
[5] = test system: DU-145 prostate

Measured: TGI

C/C(=N\NC(=O)c1ccncc1)c1cccc(C(F)(F)F)c1
> 10 µM: all assays above
